# Earlier results, collected in paper PMC12860872, “Preclinical evaluation of DOTAGA.Glu.(FAPI)2 and DO3A.Glu.(FAPI)2 as theranostics with human dosimetry extrapolation to lutetium-177 and terbium-161 analogs” (European Journal of Nuclear Medicine and Molecular Imaging, 2025).
# What was measured:
# DPP8 = system: DPP8; parameters: method as in Martin et al. 2023 (15); conditions: ref Martin et al. 2023 (15); cited from earlier work
# FAP = system: FAP; parameters: method as in Martin et al. 2023 (15); conditions: enzymatic assay; ref Martin et al. 2023 (15); cited from earlier work
smiles,measurement,setting,value
"N#C[C@@H]1CC(F)(F)CN1C(=O)CNC(=O)c1ccnc2ccccc12 [UAMC-1110, reference compound]",IC50,DPP8,> 10 µM
same,IC50,FAP,0.43 ± 0.02 nM
